The source of these data is patent US20060211624A1, “Methods and compositions for the treatment of parkinson's disease and other alpha-synucleinopathies” (Goverment of the US, as Represented by, priority 2003, published 2006).

In assay [1] the target is T1, tTGase (Homo sapiens, UniProt P21980).
T1 construct: expressed in transfected cells; host or cells: COS-7 (A2); HEK293T (A3); pSG5 expression vector
T1 sequence (P21980 1-687): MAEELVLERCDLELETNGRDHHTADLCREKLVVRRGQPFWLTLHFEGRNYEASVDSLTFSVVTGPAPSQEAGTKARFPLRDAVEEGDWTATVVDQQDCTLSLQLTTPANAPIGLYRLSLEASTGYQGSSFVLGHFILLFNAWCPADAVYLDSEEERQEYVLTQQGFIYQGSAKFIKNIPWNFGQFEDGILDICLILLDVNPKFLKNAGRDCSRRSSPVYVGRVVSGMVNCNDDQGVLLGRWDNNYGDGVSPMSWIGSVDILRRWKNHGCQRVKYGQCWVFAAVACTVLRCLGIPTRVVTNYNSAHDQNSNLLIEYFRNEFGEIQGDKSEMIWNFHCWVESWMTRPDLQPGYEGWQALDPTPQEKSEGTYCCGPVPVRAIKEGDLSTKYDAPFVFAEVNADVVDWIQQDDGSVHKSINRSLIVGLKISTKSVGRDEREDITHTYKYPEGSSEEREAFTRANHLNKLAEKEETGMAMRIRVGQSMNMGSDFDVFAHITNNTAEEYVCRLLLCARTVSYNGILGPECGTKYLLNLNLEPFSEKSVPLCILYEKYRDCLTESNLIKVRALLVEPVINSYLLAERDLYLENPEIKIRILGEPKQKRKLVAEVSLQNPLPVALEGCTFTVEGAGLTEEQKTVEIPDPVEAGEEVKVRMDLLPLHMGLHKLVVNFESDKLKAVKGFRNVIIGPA
In words: tTGase-induced α-synuclein aggregation in transfected COS-7 cells (detergent-insoluble fraction, Western blot). It is filed as cell-based. The procedure:
Suitable tTGase inhibitor compounds for use in the treatment methods and compositions of the invention can be also be assessed by a protocol referred to herein as ‘a standard in vivo tTGase inhibition assay’, set forth as follows: Cells (e.g., neurons, COS-7 cells, or HEK […] cells) are co-transfected with an α-synuclein and tTGase expression plasmids (1 μg each) using FuGene 6 reagent (Roche Molecular Biochemicals, Indianapolis, Ind.) for 6 hours and cultured in DMEM containing 10% FBS for 48 hours. Cells are then lysed in a buffer containing PBS with 1% Triton X-100 and a mixture of protease inhibitors (Roche Molecular Biochemicals). Cells are homogenized with 20 strokes in a Dounce homogenizer, centrifuged at 20,000×g at 4° C. for 30 minutes. The detergent-insoluble fraction is used in Western blot analysis using an anti-α-synuclein antibody as described above for the standard in vitro assay. The cells in the assay can be cultured in the presence or absence of a candidate compound to determine whether the candidate compound can inhibit the production of the high-molecular weight aggregates. This defined standard in vivo tTGase inhibition assay is exemplified in Examples 1 and 2 (including the materials and methods section) which follows.
α-Synuclein cDNA was cloned by PCR from human fetal brain cDNA library (Stratagene, La Jolla, Calif.) (Bennett, M. C. et al. (1999) J. Biol. Chem. 274:33855-33858) and subcloned into pcDNA3.1 (Invitrogen, Carlsbad, Calif.), and pTYB11 (New England Biolabs, Beverly, Mass.). tTGase cDNA was amplified by PCR from human liver cDNA library by using primers 5′-aagaattc[…]-3′ (SEQ ID NO:1) and 5′-aagaattc[…]-3′ (SEQ ID NO:2). Lowercase letters indicate additional nucleotides designed to facilitate cloning. The PCR product was inserted into pSG5 expression vector (Stratagene), and its sequence matched perfectly with the known cDNA sequence of human tTGase (Gentile, V. et al. (1991) J. Biol. Chem. 266:478-483). […] Mouse monoclonal tTGase antibody (CUB 7402) was purchased from DAKO (Carpinteria, Calif.). The rabbit polyclonal tTGase antibody was described in Kim. S. Y. et al. (1999) J. Biol. Chem. 274:30715-30721. Guinea pig liver tTGase, cystamine (CTM), and A23187 were purchased from Sigma (St. Louis, Mo.). Rabbit polyclonal α-synuclein antibodies were obtained from Sigma and Chemicon (Temecula, Calif.). Monoclonal anti-α-synuclein antibodies, SYN-1 and LB509, were from Transduction Laboratories (Lexington, Ky.) and Zymed (South San Francisco, Calif.), respectively. Monoclonal antibody recognizing ε(γ-glutamyl) lysine isodipeptide bonds (81D1C2) was purchased from Covalab (Lyon, France). Recombinant human α-synuclein protein was expressed in pTYB11 and purified by the IMPACT T7 system (New England Biolabs) according to the supplier's instructions.
(§1) COS-7 and human embryonic kidney (HEK) 293T cell lines were maintained in DMEM containing 10% FBS. Transfections were performed by using FuGene 6 reagent (Roche Molecular Biochemicals, Indianapolis, Ind.) for a 6 hour incubation period, and then treatments were initiated.
Cells were lysed in a buffer containing PBS with 1% Triton X-100 and a mixture of protease inhibitors (Roche Molecular Biochemicals). […] Immunoprecipitates were analyzed by Western blots with antiisodipeptide antibody (81D1C2) or anti-α-synuclein antibody SYN-1 with the ECL detection system (NEN, Boston, Mass.). […]
For orientation: Immunoblotting shows a protein as a band on a membrane.

The target of assay [2] is T1, tTGase. In words: tTGase-induced α-synuclein aggregates by immunocytochemistry in transfected HEK293T cells. The class given is cell-based. Conditions: 48 hours. The procedure:
FIG. 1 depicts α-Synuclein the detection of aggregates by immunocytochemistry. HEK293T cells transiently transfected with α-synuclein in the absence or presence of tTGase were treated with CTM (100 μM, 200 μM) or A23187 (0.1 μg/ml) for 48 hours and stained for α-synuclein and tTGase. Aggregate-containing cells among transfected cells were counted in 10 randomly selected fields. Each microscopic field had 10-20 transfected cells. The data represent means±SEM. Significance levels determined by factorial ANOVA and the Bonferroni post hoc test are shown. *, P<0.002; * *, P<0.06; * * *, P<0.02.
as §1
HEK 293T cells transiently transfected as described in the Examples below were cultured in the presence or absence of indicated chemicals in collagen-coated Biocoat slides (Becton Dickinson, Bedford, Mass.) for 48 hours. […] Cells were washed five times with PBS and analyzed under a fluorescence microscope (Axiophot, Zeiss, Thornwood, N.Y.). For quantification of inclusions, 10 microscopic fields were randomly selected, and the percentage of inclusion-positive cells was counted among transfected cells. […]

The next assay has as its target T2, guinea pig liver tTGase (Cavia cutleri, UniProt P08587).
T2 construct: purified guinea pig liver tTGase (10 nM); purchased Sigma (St. Louis, Mo.); host or cells: guinea pig liver
T2 sequence (P08587 1-690): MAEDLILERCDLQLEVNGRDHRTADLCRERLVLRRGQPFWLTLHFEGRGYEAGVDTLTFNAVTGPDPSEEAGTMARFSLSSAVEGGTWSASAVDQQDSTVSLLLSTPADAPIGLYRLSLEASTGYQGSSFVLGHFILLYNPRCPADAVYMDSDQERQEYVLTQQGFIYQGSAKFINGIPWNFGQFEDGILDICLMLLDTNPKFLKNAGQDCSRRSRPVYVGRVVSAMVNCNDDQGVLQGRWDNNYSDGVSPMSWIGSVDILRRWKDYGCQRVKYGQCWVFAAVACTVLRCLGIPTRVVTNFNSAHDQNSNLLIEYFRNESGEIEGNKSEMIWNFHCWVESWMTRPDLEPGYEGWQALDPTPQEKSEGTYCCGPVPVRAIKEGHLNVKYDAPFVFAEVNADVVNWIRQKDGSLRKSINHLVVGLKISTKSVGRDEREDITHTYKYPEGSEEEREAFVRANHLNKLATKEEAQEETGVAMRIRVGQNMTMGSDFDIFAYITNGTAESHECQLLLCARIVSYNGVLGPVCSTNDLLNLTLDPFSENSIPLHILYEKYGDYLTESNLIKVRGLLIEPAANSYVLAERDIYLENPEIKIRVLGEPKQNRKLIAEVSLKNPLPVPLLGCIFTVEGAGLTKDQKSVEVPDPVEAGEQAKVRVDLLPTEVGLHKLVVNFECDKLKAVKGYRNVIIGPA
As to the kind of experiment: In vitro cross-linking reaction of α-synuclein by tTGase (SDS/PAGE, Western blot). The class given is biochemical. Conditions: 37° C., 2 hours. As to the method: Suitable tTGase inhibitor compounds for use in the treatment methods and compositions of the invention can be assessed by straightforward protocols, such as the following. […] The reaction products are then analyzed by standard SDS/PAGE and Western blot using an anti-α-synuclein antibody (e.g., rabbit polyclonal antibodies, available from Sigma or Chemicon (Temecula, Calif.); or monoclonal antibodies such as SYN-1 or LB509, available from Signal Transduction Laboratories (Lexington, Ky.) and Zymed (South San Francisco, Calif.), respectively). […]
The reaction was performed at 37° C. for 2 hours in a buffer containing 50 mM Tris-HCl (pH 7.5), 2 mM leupeptin, and 1 mM purified α-synuclein. […] The reaction was stopped by the addition of 20 mM EDTA, and products were analyzed by SDS/PAGE followed by Western blot.
To study the in vitro cross-linking of α-synuclein, purified recombinant human α-synuclein protein was incubated with guinea pig liver tTGase for 2 hours at 37° C., and the reaction products were analyzed by SDS/PAGE, followed by Western blotting with anti-α-synuclein antibody. […]

[3] abbreviates: delayed treatment, 200 μM during the final 48 hours of 96 hours, COS-7.

With `CNc1ccc2oc(C[C@H]3O[C@@]4(CC[C@H]3C)O[C@H]([C@H](C)C(=O)c3ccc[nH]3)[C@H](C)C[C@H]4C)nc2c1C(=O)O` [A23187], at tTGase [1] (COS-7 cells transfected with only α-synuclein, 0.1 μg/ml), the “high molecular weight bands of α-synuclein” value is on record as “some high molecular weight bands”. For the same compound, the “formation of α-synuclein aggregates” value on tTGase [1] (α-synuclein- and tTGase-transfected COS-7 cells, 0.1 μg/ml) is recorded as “significant increase”. For the same compound, at tTGase [2] (HEK293T cells, 0.1 μg/ml), the “aggregate formation (aggregate-containing cells among transfected cells)” value is on record as “significantly increased”.

With `NCCSSCCN` [CTM, cystamine], on tTGase [1] (setting [3]), the “further de novo aggregation occurring during the final 48 hours” value is on record as “inhibited further de novo aggregation” and the “level of aggregates formed during the initial 48 hours (preformed aggregates)” value is reported as “did not diminish”. Also, the “formation of tTGase-induced α-synuclein aggregates” value on tTGase [1] (α-synuclein- and tTGase-transfected COS-7 cells, 200 μM for 48 hours) is “dramatically inhibited”. For the same compound, the “inclusion formation (aggregate-containing cells among transfected cells)” value at tTGase [2] (HEK293T cells coexpressing α-synuclein and tTGase, 100 μM, 200 μM) was “decreased inclusion formation”.

`[Ca+2].[Cl-].[Cl-]` [CaCl2]: the “generation of high molecular weight aggregates of α-synuclein” value on guinea pig liver tTGase (addition of CaCl2 (5 mM), tTGase 10 nM, DTT 0.1 mM) is given as “significantly enhanced”.

For the compound `O=C(O)CN(CCN(CC(=O)O)CC(=O)O)CC(=O)O` [EDTA], the “aggregate formation (α-synuclein)” value at guinea pig liver tTGase (chelation with EDTA (0.1 mM, 5 mM)) is on record as “dose-dependently blocked”.
